Like-named read-outs stand apart in the source and are kept apart here.
What was measured:
[1] = Solubility in polar solvents; type: physicochemical; conditions: polar solvents (e.g. ethanol, methanol, DMSO)
Source text: Transmission electron micrographs of the Pc-gold nanoparticles are consistent with those reported by several groups for other thiol-stabilized MPCs in that they show small, 2-4 nm, non-aggregated particles—FIG. 2. […] A similar change in solubility was recently reported by Imahori et al.^23 for a porphyrin self-assembled on gold nanoparticles used as an artificial photosynthetic material.

[2] = Fluorescence lifetime by time-correlated single photon counting; type: physicochemical
Source text: Fluorescence lifetime (τ) measurements were obtained by using the method of time-correlated single photon counting. For both the free and bound phthalocyanine optimum fits (X2) were obtained for the double exponential and τ1 and τ2 values are shown in table 1.

[3] = Singlet oxygen quantum yield, method of Nonell and Braslavsky; type: physicochemical; conditions: for Increase in ΦΔ: addition of 1 mM TOAB to the free Pc
Procedure: Singlet oxygen quantum yields, ΦΔ, for both the free and bound Pc were determined (Table 1) using the method of Nonell and Braslavsky.^24 The Pc coated nanoparticles were referenced to perinapthenone in ethanol (ΦΔ=0.97)^25, whilst free Pc was referenced to perinapthenone and octa-decyl zinc phthalocyanine^17 in toluene (ΦΔ=1.0 and 0.7 respectively). After deoxygenation of the Pc samples no singlet oxygen could be detected. […] The value of ΦΔ of 0.45 for the free Pc in toluene is consistent with previous measurements of similar metallated Pcs.^26

[4] = cited from earlier work
[5] = double exponential fit, free Pc in toluene, Pc-nanoparticles in ethanol
[6] = in toluene with addition of 1 mM TOAB

Solubility in polar solvents [1] | τ1 (yield) [2, 5] | τ1 fluorescence lifetime [2, 5] | τ2 (yield) [2, 5] | τ2 fluorescence lifetime [2, 5] | τ1 (yield) [2, 6] | τ1 fluorescence lifetime [2, 6] | τ2 (yield) [2, 6] | τ2 fluorescence lifetime [2, 6] | Compound | Increase in ΦΔ [3] | Increase in ΦΔ ([3]; listed as free phthaloyanine) | φΔ singlet oxygen quantum yield ([3]; free Pc in toluene, Pc-nanoparticles in ethanol, referenced to perinapthenone (and octa-decyl zinc phthalocyanine for free Pc)) | ΦΔ singlet oxygen quantum yield of reference ([4]; in ethanol) | ΦΔ singlet oxygen quantum yield of reference ([4]; in toluene)
insoluble | 91% | 2.1 ns | 9% | 1.11 ns | 76% | 0.7 ns | 24% | 1.7 ns | CCCCCCc1ccc(CCCCCC)c2c1-c1nc3nc(nc4[nH]c(nc5[nH]c(nc-2n1)c1c(CCCCCC)ccc(CCCCCC)c51)c1c(CCCCCC)ccc(CCCCCC)c41)-c1c(C)ccc(CCCCCCCCCCCS)c1-3 [Free Pc, 1,4,8, 11, 15, 18-hexahexyl-22-(11-mercaptoundecyl)-25-methyl phthalocyanine] | ca. 10% | about 10% | 0.45 |  | 
 |  |  |  |  |  |  |  |  | O=C1C=Cc2cccc3cccc1c23 [perinapthenone] |  |  |  | 0.97 | 1.0
 |  |  |  |  |  |  |  |  | octa-decyl zinc phthalocyanine |  |  |  |  | 0.7

— patent publication US7563818B2, “Photosensitizer functionalised nanoparticles” (Cancer Research Technology Limited, priority 2001, dated 2009)
